Values quoted from earlier work as cited in patent US20160186266A1, “MOLECULAR PROFILING FOR PERSONALIZED MEDICINE” (CARIS LIFE SCIENCES, INC., priority 2009, published 2016).

How the values were obtained:
[1] = system: platelet-derived growth factor receptor (PDGFR)
[2] = biological target: c-Kit (Homo sapiens, UniProt P10721)
c-Kit, sequence (P10721 26-976): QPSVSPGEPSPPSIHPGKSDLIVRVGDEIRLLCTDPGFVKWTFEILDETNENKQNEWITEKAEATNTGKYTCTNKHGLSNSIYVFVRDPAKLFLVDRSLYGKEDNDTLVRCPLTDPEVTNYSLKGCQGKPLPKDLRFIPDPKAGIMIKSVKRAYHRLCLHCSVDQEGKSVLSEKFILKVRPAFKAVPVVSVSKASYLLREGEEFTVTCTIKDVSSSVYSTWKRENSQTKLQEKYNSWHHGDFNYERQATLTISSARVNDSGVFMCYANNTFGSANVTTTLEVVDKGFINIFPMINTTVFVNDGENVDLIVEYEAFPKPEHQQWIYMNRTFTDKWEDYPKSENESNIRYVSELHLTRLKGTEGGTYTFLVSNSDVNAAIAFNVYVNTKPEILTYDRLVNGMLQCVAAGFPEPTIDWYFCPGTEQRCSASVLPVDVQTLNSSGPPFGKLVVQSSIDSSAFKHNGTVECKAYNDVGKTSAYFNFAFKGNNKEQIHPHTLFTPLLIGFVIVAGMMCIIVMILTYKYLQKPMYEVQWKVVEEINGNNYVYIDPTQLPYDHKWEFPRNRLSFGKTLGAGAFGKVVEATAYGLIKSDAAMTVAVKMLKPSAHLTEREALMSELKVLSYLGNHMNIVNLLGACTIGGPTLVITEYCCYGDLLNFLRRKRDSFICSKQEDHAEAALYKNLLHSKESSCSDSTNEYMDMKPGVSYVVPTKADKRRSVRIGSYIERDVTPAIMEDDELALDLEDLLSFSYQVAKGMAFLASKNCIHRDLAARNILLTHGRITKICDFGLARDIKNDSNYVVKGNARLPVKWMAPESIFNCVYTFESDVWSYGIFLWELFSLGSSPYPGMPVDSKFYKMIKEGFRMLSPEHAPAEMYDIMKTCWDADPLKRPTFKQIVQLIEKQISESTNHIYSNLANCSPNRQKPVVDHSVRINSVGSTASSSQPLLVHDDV

effect on kinase activity [2]: block the activity
SMILES: Cc1ccc(NC(=O)c2ccc(CN3CCN(C)CC3)cc2)cc1Nc1nccc(-c2cccnc2)n1 [Imatinib]
effect on kinase activity [1]: block the activity
